As a reminder, the GI50 is the concentration giving 50% growth inhibition. A low value points to greater sensitivity of the cells. A word on the pIC50: it is the negative decadic logarithm of the IC50, by convention in mol/L.

We go through 1 compound from patent US20240408216A1, “PROTEIN INHIBITOR OR DEGRADING AGENT, PHARMACEUTICAL COMPOSITION CONTAINING SAME AND PHARMACEUTICAL USE” (JING MEDICINE TECHNOLOGY (SHANGHAI) LTD., priority 2021, published 2024).

pIC50: −log10 of the molar value. Some results are limits rather than exact numbers.

One assay deals with BaF3 (EGFR L858R) (Homo sapiens, UniProt P00533, L858R, cells depend on it). In words: Cell proliferation IC50 assay (Cell Titer GLO), BaF3 L cells. As to conditions: Table 7, 72 h. The format is cell-based, mouse. How it is done:
(§1) IC50 of compounds in the present invention was determined by Cell Titer GLO reagent from Promega. The procedures are as follows:
(§2) Tumor cells were cultured in specified medium in an incubator at 37° C. and 5% CO2. The cells were passaged periodically. Cells at the logarithmic growth phase were collected for plating at a density of 2000-4000 cells/well. The next day, the compounds of the present invention were serially diluted and added to the cells, with DMSO being the negative control and the culture media without cells being the blank control. The plate was incubated in the incubator for 72 h. The cell viability assay was performed by adding the detection reagents to the cell culture media according to Cell Titer GLO reagent instructions and detecting luminescent signals on an EnVision microplate reader (PerkinElmer).
(§3) Inhibition of cell growth by the compounds of the present invention was plotted by Prism Graphpad software for statistically calculating the IC50 of the compound of the present invention.

The next assay relates to DT. In words: Cell proliferation IC50 assay (Cell Titer GLO), DT cells. It counts as cell-based. As to conditions: Mus musculus; Table 7; DT cells (BaF3 with EGFR mutant), 72 h. How it is done:
as §1, §2, §3
A general note: In ATP-based viability assays light output follows the ATP content of the culture.

Another assay has as its target T1, BaF3 (EGFR Del19/C797S) (Homo sapiens, UniProt P00533, C797S, cells depend on it, form not given).
T1 construct: BaF3 (EGFR Del19/C797S)|DC|RPMI1640 + 10% FBS
In words: Cell proliferation IC50 assay (Cell Titer GLO), BaF3 DC cells. The format is cell-based, mouse. As to conditions: Table 7, 72 h. The method, boiled down:
(§4)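 Growth inhibition is measured over 72 h of continuous compound treatment in cells seeded at 2000-4000 per well.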

Assay [1] deals with BaF3 (EGFR L858R/T790M/C797S). In words: Cell proliferation IC50 assay (Cell Titer GLO), BaF3 LTC cells. The format is cell-based. The settings on record: Mus musculus, Ba/F3 EGFR, Table 5, 72 h. The method in brief: as §4
In a further assay the test system is BaF3 patent. In words: Cell proliferation IC50 assay (Cell Titer GLO), BaF3 parental cells. It counts as cell-based. As to conditions: Mus musculus, Table 5, 10 ng/ml mIL3, 72 h. The method, boiled down:
as §4

The test system of the next assay is human EGFR-DC. In words: EGFR protein abundance assay (Western blotting), EGFR-DC. It counts as cell-based. The settings on record: Ba/F3 cells expressing human EGFR-DC, 24 h, Western blot. On the procedure:
(§5) Mouse Ba/F3 cells stably expressing human EGFR-DTC, EGFR-LTC, or EGFR-DC were transferred to Petri dishes with RPMI-1640 medium (Gibco, Product No. 11875093) containing 10% fetal bovine serum (FBS, Biological Industries, Product No. 04-001-1A) and 0.1% penicillin/streptomycin (P/S) and incubated in an aseptic incubator at 37° C., 95% relative humidity, and 5% CO2. Cells at the logarithmic growth phase were taken and seeded at a density of 50000 cells/well in 12-well plates (Corning, Product No. 3513) containing 1 mL of medium per well. After 24 h, the compounds disclosed herein with different concentrations were added to the wells at a final DMSO concentration of 0.1%. After 24 h, cells were lysed in SDS lysis buffer (1.45 g of SDS, 0.2 g of Tris base, 6 mL of glycerol, 20 mg of bromophenol blue, 310 mg DTT; brought to 40 mL with d2H2O), and the EGFR levels were detected and analyzed by Western Blotting (immunoblotting) using standard molecular biological techniques. Cell lysates were boiled at 95° C. for 8 min, mixed and centrifuged. The total cell proteins in the lysates were subjected to SDS-PAGE (GenScript, Product No. M00654), transferred to NC membranes (GE, Product No. 1060002) by blotting, incubated in a blocking buffer (TAKARA, Product No. T7131A) at room temperature for 60 min, and co-incubated overnight at 4° C. with the following primary antibodies: anti-EGFR (#4267S, 1:1000), anti-phoso-EGFR (#3777S, 1:1000), anti-GAPDH (#5174S, 1:10000), anti-Actin (#5125 S, 1:10000) (all purchased from Cell Signaling Technology). The samples were washed three times with TBST at room temperature, each for 10 min, and then incubated for 60 minutes in a blocking buffer containing a secondary antibody (#7074S, 1:10000, purchased from Cell Signaling Technology) at room temperature. The samples were washed three times with TBST at room temperature, each for 10 min. Chemiluminescent substrates were added, and an Azure c300 system was used for imaging.
(In general: In western blotting, separated proteins are transferred to a membrane and probed.)

The next assay has as its system human EGFR-DTC. In words: EGFR protein abundance assay (Western blotting), EGFR-DTC. It counts as cell-based. The settings on record: Ba/F3 cells expressing human EGFR-DTC, 24 h, Western blot. How it is done: as §5
Assay [2] deals with BaF3 (EGFR Del19/T790M/C797S). In words: Cell proliferation IC50 assay (Cell Titer GLO), BaF3 DTC cells. The format is cell-based. The settings on record: Mus musculus, Ba/F3 EGFR-Del19/T790M/C797S, Table 5, 72 h. The method in brief:
as §4

A further assay addresses BaF3 (EGFR Del19) (Homo sapiens, UniProt P00533, cells depend on it, form not given). The experiment in a line: Cell proliferation IC50 assay (Cell Titer GLO), BaF3 D cells. As to conditions: Table 7, 72 h. It counts as cell-based, mouse. How it is done:
as §1, §2, §3

The next assay concerns LT. The experiment in a line: Cell proliferation IC50 assay (Cell Titer GLO), LT cells. The settings on record: Mus musculus; Table 7; LT cells (BaF3 with EGFR mutant), 72 h. The format is cell-based. How it is done: as §1, §2, §3
The next assay deals with T2, human EGFR-LTC (Homo sapiens, UniProt P00533, C797S/L858R/T790M).
T2 construct: expressed in transfected cells
T2 sequence (P00533 25-1210 T790M/C797S/L858R): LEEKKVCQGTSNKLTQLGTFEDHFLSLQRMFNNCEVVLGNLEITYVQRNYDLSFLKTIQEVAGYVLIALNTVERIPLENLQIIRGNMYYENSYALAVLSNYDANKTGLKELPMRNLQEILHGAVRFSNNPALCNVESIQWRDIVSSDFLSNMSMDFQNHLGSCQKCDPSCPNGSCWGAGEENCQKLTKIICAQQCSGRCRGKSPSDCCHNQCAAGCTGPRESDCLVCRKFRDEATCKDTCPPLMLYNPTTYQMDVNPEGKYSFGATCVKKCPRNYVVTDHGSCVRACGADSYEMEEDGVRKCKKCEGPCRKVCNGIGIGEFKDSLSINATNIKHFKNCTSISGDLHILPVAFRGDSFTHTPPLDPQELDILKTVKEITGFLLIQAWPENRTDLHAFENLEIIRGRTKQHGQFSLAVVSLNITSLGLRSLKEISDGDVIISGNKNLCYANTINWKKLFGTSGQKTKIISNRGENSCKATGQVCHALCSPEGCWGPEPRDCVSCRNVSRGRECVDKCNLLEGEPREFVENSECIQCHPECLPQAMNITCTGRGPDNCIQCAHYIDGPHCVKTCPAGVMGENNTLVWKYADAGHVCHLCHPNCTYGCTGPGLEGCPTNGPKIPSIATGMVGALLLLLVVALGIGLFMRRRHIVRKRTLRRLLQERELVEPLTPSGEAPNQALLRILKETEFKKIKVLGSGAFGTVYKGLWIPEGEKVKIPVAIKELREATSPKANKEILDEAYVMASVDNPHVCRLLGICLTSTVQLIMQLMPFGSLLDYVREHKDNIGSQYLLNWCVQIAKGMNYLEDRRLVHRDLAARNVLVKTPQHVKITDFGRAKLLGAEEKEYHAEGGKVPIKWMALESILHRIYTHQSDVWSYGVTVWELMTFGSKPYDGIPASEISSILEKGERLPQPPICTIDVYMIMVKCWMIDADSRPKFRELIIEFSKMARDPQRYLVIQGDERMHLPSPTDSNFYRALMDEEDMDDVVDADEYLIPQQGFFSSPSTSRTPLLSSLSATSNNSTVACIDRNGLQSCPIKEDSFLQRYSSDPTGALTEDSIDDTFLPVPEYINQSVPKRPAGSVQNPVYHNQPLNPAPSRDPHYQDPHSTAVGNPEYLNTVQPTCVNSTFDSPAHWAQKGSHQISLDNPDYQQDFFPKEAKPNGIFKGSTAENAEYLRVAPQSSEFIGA
In words: EGFR protein abundance assay (Western blotting), EGFR-LTC. The settings on record: 24 h, Western blot. The format is cell-based. How it is done: as §5

Another assay deals with BaF3 (EGFR WT). In words: Cell proliferation IC50 assay (Cell Titer GLO), BaF3 WT cells. It counts as cell-based. As to conditions: Mus musculus, Ba/F3 EGFR, Table 5, 10 ng/ml EGF, 72 h. The method in brief:
as §4

In the next assay the test system is A431. In words: Cell proliferation IC50 assay (Cell Titer GLO), A431 cells. The format is cell-based. The settings on record: Homo sapiens, A-431; Table 5; A431, 72 h; read-out: A431 IC50. The method, boiled down:
as §4

For another assay, the target named is BaF3 (EGFR L858R/C797S) (Homo sapiens, UniProt P00533, C797S/L858R, cells depend on it). The experiment in a line: Cell proliferation IC50 assay (Cell Titer GLO), BaF3 LC cells. The format is cell-based, mouse. As to conditions: Table 7, 72 h. How it is done:
as §1, §2, §3

T1 sequence (P00533 with tags, fused parts or gaps DEL746-750/C797S, form open): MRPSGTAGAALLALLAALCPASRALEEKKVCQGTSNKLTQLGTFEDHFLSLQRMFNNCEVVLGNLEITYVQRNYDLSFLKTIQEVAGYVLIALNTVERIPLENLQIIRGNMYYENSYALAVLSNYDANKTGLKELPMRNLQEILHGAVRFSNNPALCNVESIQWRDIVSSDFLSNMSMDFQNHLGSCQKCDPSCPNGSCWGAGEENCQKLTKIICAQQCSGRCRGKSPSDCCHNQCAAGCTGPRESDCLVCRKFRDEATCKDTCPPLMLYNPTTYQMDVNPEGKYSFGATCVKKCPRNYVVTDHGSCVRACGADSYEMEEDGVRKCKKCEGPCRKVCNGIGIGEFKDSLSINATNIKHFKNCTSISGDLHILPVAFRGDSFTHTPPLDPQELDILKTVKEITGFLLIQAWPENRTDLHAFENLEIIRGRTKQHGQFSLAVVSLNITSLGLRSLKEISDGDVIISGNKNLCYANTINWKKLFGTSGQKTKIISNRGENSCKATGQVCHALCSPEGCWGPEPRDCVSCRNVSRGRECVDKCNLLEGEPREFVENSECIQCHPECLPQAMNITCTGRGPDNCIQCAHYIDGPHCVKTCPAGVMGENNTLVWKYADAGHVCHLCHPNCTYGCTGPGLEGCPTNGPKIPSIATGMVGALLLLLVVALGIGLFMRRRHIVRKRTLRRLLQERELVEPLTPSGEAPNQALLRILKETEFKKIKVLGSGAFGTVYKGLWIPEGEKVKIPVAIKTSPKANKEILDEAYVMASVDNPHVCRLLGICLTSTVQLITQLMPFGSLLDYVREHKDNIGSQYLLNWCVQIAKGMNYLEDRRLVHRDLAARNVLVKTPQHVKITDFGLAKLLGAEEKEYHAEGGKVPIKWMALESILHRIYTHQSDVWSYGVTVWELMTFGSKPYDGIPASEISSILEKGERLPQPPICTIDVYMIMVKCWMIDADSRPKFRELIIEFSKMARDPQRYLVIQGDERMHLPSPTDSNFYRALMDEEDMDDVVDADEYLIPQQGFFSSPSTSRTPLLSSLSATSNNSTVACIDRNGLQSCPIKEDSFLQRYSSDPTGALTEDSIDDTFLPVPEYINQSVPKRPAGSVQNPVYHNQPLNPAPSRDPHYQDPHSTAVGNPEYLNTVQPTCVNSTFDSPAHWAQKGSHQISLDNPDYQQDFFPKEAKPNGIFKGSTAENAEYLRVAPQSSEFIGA
Sequence of BaF3 (EGFR Del19) (P00533 with tags, fused parts or gaps DEL746-750): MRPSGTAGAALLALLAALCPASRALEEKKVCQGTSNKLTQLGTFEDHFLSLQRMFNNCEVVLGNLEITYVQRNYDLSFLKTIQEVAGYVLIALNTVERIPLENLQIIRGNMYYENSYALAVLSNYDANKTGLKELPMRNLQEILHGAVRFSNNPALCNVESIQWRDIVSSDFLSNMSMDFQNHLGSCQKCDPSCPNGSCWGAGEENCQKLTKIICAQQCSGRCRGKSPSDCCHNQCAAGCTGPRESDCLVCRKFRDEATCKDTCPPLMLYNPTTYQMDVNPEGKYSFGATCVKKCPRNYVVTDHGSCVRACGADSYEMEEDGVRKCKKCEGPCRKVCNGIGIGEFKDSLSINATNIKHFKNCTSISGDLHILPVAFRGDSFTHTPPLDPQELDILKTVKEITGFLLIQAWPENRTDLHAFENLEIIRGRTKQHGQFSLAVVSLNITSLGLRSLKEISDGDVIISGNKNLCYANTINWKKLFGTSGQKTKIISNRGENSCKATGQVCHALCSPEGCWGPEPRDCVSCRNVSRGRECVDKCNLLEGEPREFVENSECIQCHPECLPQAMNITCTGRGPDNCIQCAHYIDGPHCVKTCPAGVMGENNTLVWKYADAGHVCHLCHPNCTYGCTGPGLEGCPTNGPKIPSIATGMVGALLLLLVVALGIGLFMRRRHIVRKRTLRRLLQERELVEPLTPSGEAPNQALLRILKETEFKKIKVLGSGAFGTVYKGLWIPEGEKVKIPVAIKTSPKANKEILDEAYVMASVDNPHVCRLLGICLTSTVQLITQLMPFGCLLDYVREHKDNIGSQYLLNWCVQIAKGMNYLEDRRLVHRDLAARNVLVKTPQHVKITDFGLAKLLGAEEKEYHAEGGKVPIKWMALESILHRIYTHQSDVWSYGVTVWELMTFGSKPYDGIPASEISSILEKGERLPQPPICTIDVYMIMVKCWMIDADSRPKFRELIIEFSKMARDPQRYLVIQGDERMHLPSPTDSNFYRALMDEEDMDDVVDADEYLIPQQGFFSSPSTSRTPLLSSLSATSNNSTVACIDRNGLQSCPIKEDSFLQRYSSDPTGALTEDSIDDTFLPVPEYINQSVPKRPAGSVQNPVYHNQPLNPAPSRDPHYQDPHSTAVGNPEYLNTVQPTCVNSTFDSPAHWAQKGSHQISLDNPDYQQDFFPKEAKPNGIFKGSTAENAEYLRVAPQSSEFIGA
Sequence of BaF3 (EGFR L858R/C797S) (P00533 whole entry C797S/L858R): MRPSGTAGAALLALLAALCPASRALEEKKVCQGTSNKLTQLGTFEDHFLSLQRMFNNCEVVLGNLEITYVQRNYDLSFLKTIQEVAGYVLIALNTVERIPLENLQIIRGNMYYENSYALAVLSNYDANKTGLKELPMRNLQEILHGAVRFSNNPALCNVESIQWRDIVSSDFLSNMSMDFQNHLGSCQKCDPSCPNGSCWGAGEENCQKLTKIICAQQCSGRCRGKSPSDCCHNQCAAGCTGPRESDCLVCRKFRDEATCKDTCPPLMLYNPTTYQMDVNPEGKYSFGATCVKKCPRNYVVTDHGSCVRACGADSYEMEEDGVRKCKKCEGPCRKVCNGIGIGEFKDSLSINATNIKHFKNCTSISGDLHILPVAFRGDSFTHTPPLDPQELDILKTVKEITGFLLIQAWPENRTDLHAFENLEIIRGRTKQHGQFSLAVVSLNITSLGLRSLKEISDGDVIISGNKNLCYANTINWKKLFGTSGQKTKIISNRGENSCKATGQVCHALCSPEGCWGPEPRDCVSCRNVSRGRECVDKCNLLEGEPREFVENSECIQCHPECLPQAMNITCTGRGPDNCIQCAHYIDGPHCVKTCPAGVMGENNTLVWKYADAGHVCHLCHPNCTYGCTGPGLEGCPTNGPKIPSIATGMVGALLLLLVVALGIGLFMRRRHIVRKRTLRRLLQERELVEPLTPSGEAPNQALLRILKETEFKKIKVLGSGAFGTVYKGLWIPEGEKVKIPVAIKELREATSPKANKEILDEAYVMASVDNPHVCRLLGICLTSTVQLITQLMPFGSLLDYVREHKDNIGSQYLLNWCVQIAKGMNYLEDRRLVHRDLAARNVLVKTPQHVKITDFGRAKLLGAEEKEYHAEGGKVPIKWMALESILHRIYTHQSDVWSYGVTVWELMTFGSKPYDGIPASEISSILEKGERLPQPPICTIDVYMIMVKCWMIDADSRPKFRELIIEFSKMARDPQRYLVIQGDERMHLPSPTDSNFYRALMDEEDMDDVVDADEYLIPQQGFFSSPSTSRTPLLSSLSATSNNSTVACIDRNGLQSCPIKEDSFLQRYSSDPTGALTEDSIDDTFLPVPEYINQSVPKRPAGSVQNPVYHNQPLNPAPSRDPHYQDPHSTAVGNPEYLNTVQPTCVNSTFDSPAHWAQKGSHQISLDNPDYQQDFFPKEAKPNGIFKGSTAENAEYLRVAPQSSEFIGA

In the case of `CCc1cc(Nc2ncc(Cl)c(Nc3ccccc3P(C)(C)=O)n2)c(OC)cc1N1CCC(N2CCN(CCC#Cc3cccc4c3CN(C3CCC(=O)NC3=O)C4=O)CC2)CC1` (single isomer, unassigned) [Example E4], the values for the GI50 on BaF3 (EGFR L858R), at BaF3 (EGFR Del19) and at BaF3 (EGFR L858R/C797S) were 6.7 nM, 2.1 nM and 23 nM, respectively. Moreover, the negative logarithm of the IC50 (pIC50) in the assay with DT was 8.26; at BaF3 (EGFR Del19/C797S), 8.32; in assay [1], 7.42; in the assay on BaF3 patent, < 5.40; in assay [2], 8.18; with LT, 8.13. The pIC50 in the assay with BaF3 (EGFR WT) is < 5.40; in the assay on A431, 5.69. Also, the DC50 worked out at 18.6 nM in the assay with human EGFR-DC, 2.27 nM in the assay on human EGFR-DTC and 6.26 nM on human EGFR-LTC (Ba/F3 cells expressing human EGFR-LTC). In addition, the “EGFR-DC Dmax” value in the assay on human EGFR-DC is 75%. Further, the “EGFR-DTC Dmax” value with human EGFR-DTC was found to be 96%. The compound further had a Dmax on human EGFR-LTC (BaF3, Ba/F3 cells expressing human EGFR-LTC) of 91%.
